“And” between values parts separate entries of the source, which are not always exact repeats. Equal values may be shown once. Inconclusive results and toxic doses are left out. No stated cut-off is given here; in the data, active means T/C of 150% or more; inactive means T/C below 125%.
Test system: L1210 leukemia ip in BDF1 mice, survival T/C
Assay: NCI In Vivo Anticancer Drug Screen. Data for tumor model L1210 Leukemia (intraperitoneal) in B6D2F1 (BDF1) mice
Settings: endpoint: mean survival time, higher = longer survival
How it was run: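 Each compound was tested against a transplantable tumor grown in mice. The endpoint was survival, with treated animals benchmarked against vehicle controls as a simple ratio.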

[1] = dose: 100.0 mg/kg/injection, schedule: Q04DX003 (ip), vehicle: saline with Tween-80
[2] = dose: 200.0 mg/kg/injection, schedule: Q04DX003 (ip), vehicle: saline with Tween-80
[3] = dose: 400.0 mg/kg/injection, schedule: Q04DX003 (ip), vehicle: saline with Tween-80
[4] = dose: 25.0 mg/kg/injection, schedule: Q01DX009 (ip), vehicle: Klucel (hydroxypropylcellulose) (HPC)
[5] = dose: 25.0 mg/kg/injection, schedule: Q04DX003 (ip), vehicle: Klucel (hydroxypropylcellulose) (HPC)
[6] = dose: 100.0 mg/kg/injection, schedule: Q04DX003 (ip), vehicle: Klucel (hydroxypropylcellulose) (HPC)
[7] = dose: 100.0 mg/kg/injection, schedule: Q01DX001 (ip), vehicle: saline
[8] = dose: 100.0 mg/kg/injection, schedule: Q01DX009 (ip), vehicle: saline
[9] = dose: 100.0 mg/kg/injection, schedule: Q04DX003 (ip), vehicle: saline
[10] = dose: 200.0 mg/kg/injection, schedule: Q01DX001 (ip), vehicle: saline
[11] = dose: 200.0 mg/kg/injection, schedule: Q01DX009 (ip), vehicle: saline
[12] = dose: 200.0 mg/kg/injection, schedule: Q04DX003 (ip), vehicle: saline
[13] = dose: 400.0 mg/kg/injection, schedule: Q01DX001 (ip), vehicle: saline
[14] = dose: 400.0 mg/kg/injection, schedule: Q01DX009 (ip), vehicle: saline
[15] = dose: 400.0 mg/kg/injection, schedule: Q04DX003 (ip), vehicle: saline
[16] = dose: 100.0 mg/kg/injection, schedule: Q01DX009 (ip), vehicle: Klucel (hydroxypropylcellulose) (HPC)
[17] = dose: 200.0 mg/kg/injection, schedule: Q01DX009 (ip), vehicle: Klucel (hydroxypropylcellulose) (HPC)
[18] = dose: 400.0 mg/kg/injection, schedule: Q01DX009 (ip), vehicle: Klucel (hydroxypropylcellulose) (HPC)

Measured: T/C

CN(NC(=O)c1ccccc1)c1ccccc1
inactive: [1] 96 % of control | [2] 107 % of control | [3] 105 % of control

O=C(O)c1ccccc1Br.[Ni]
inactive: dose: 3.0 mg/kg/injection, schedule: Q01DX009 (ip), vehicle: Klucel (hydroxypropylcellulose) (HPC) 91 % of control | dose: 6.0 mg/kg/injection, schedule: Q01DX009 (ip), vehicle: Klucel (hydroxypropylcellulose) (HPC) 94 % of control | dose: 12.0 mg/kg/injection, schedule: Q01DX009 (ip), vehicle: Klucel (hydroxypropylcellulose) (HPC) 94 % of control | dose: 12.5 mg/kg/injection, schedule: Q01DX001 (ip), vehicle: Klucel (hydroxypropylcellulose) (HPC) 97 % of control | dose: 25.0 mg/kg/injection, schedule: Q01DX001 (ip), vehicle: Klucel (hydroxypropylcellulose) (HPC) 93 % of control | [4] 88 % of control | dose: 50.0 mg/kg/injection, schedule: Q01DX001 (ip), vehicle: Klucel (hydroxypropylcellulose) (HPC) 103 % of control

COc1ccccc1N=Nc1c(O)n(-c2ccccc2C)c(=S)n(-c2ccccc2OC)c1=O
inactive: [5] 98 % of control | dose: 50.0 mg/kg/injection, schedule: Q04DX003 (ip), vehicle: Klucel (hydroxypropylcellulose) (HPC) 98 % of control | dose: 100.0 mg/kg/injection, schedule: Q01DX001 (ip), vehicle: Klucel (hydroxypropylcellulose) (HPC) 109 % of control | [6] 91 % of control | dose: 200.0 mg/kg/injection, schedule: Q01DX001 (ip), vehicle: Klucel (hydroxypropylcellulose) (HPC) 98 % of control

CCCC(=O)N1CC(C)OC(C)C1 (configuration not stated)
inactive: [7] 100 % of control | [8] 98 % of control and 104 % of control | dose: 100.0 mg/kg/injection, schedule: Q04DX002 (ip), vehicle: saline 109 % of control | [9] 98 % of control | [10] 93 % of control | [11] 100 % of control and 104 % of control | dose: 200.0 mg/kg/injection, schedule: Q04DX002 (ip), vehicle: saline 115 % of control | [12] 104 % of control | [13] 104 % of control | [14] 96 % of control and 107 % of control | dose: 400.0 mg/kg/injection, schedule: Q04DX002 (ip), vehicle: saline 102 % of control | [15] 100 % of control

COc1ccc(CCBr)cc1
inactive: [16] 97 % of control | [17] 97 % of control | [18] 95 % of control

C=CCNC(=O)c1cncc(C(=O)O)c1
inactive: [7] 96 % of control | [10] 104 % of control | [13] 98 % of control

Cc1ccc(C(=O)c2sc(Nc3cccc(C(F)(F)F)c3)c(C#N)c2N)c(C)c1
inactive: dose: 100.0 mg/kg/injection, schedule: Q04DX002 (ip), vehicle: saline with Tween-80 95 % of control | dose: 200.0 mg/kg/injection, schedule: Q04DX002 (ip), vehicle: saline with Tween-80 87 % of control | dose: 400.0 mg/kg/injection, schedule: Q04DX002 (ip), vehicle: saline with Tween-80 91 % of control

Cc1ccc(S(=O)(=O)N(Cl)Cl)cc1
inactive: dose: 6.25 mg/kg/injection, schedule: Q01DX009 (ip), vehicle: Klucel (hydroxypropylcellulose) (HPC) 115 % of control | dose: 6.25 mg/kg/injection, schedule: Q04DX003 (ip), vehicle: Klucel (hydroxypropylcellulose) (HPC) 94 % of control | dose: 12.5 mg/kg/injection, schedule: Q04DX003 (ip), vehicle: Klucel (hydroxypropylcellulose) (HPC) 98 % of control | [4] 94 % of control | [5] 102 % of control | [7] 110 % of control | [10] 101 % of control | [13] 108 % of control

CCOC(=O)NC(NC(=O)OCC)C(Cl)CC (configuration not stated)
inactive: [7] 107 % of control | [10] 97 % of control | [13] 101 % of control

Cc1[nH]c(=O)[nH]c(=O)c1/C=C/C(=O)O
inactive: [7] 97 % of control | [8] 108 % of control | [10] 100 % of control | [11] 102 % of control | [13] 97 % of control | [14] 106 % of control

O=C(O)c1cc(O)c(Br)c(O)c1
inactive: dose: 75.0 mg/kg/injection, schedule: Q01DX009 (ip), vehicle: other 93 % of control | [9] 106 % of control | dose: 150.0 mg/kg/injection, schedule: Q01DX009 (ip), vehicle: other 96 % of control | [12] 101 % of control | [15] 95 % of control

CCN(CC)CCCC(C)Nc1cc(C)nc(Nc2nc3cc(Cl)c(Cl)cc3[nH]2)n1 (configuration not stated)
inactive: dose: 5.0 mg/kg/injection, schedule: Q01DX009 (ip), vehicle: saline with Tween-80 96 % of control | dose: 10.0 mg/kg/injection, schedule: Q01DX009 (ip), vehicle: saline with Tween-80 93 % of control

COC(=O)C(C)C(C)=O (configuration not stated)
inactive: dose: 100.0 mg/kg/injection, schedule: Q01DX009 (sc), vehicle: olive oil, sesame oil, peanut oil 106 % of control | dose: 100.0 mg/kg/injection, schedule: Q04DX003 (sc), vehicle: olive oil, sesame oil, peanut oil 98 % of control | dose: 200.0 mg/kg/injection, schedule: Q01DX009 (sc), vehicle: olive oil, sesame oil, peanut oil 107 % of control | dose: 200.0 mg/kg/injection, schedule: Q04DX003 (sc), vehicle: olive oil, sesame oil, peanut oil 101 % of control | dose: 400.0 mg/kg/injection, schedule: Q01DX009 (sc), vehicle: olive oil, sesame oil, peanut oil 106 % of control | dose: 400.0 mg/kg/injection, schedule: Q04DX003 (sc), vehicle: olive oil, sesame oil, peanut oil 98 % of control

Cc1ccc(S(=O)(=O)OC2CC3c4ccccc4C2c2cccc[n+]23)cc1 (configuration not stated)
inactive: dose: 12.5 mg/kg/injection, schedule: Q01DX001 (ip), vehicle: saline 103 % of control | dose: 25.0 mg/kg/injection, schedule: Q01DX001 (ip), vehicle: saline 115 % of control | dose: 25.0 mg/kg/injection, schedule: Q04DX003 (ip), vehicle: saline 99 % of control | dose: 50.0 mg/kg/injection, schedule: Q01DX001 (ip), vehicle: saline 110 % of control | dose: 50.0 mg/kg/injection, schedule: Q04DX003 (ip), vehicle: saline 94 % of control | [7] 105 % of control

Cc1ccc(NC(=S)N2CCCCC2C)cc1C (configuration not stated)
inactive: [16] 98 % of control | [17] 101 % of control | [18] 91 % of control

Cc1cc(C)cc(OC(=O)Nc2ccccc2Cl)c1
inactive: [16] 88 % of control | [6] 98 % of control | [17] 92 % of control | dose: 200.0 mg/kg/injection, schedule: Q04DX003 (ip), vehicle: Klucel (hydroxypropylcellulose) (HPC) 98 % of control | [18] 86 % of control | dose: 400.0 mg/kg/injection, schedule: Q04DX003 (ip), vehicle: Klucel (hydroxypropylcellulose) (HPC) 98 % of control

CC1C(=O)C2C(CCC3=CC(=O)CCC32C)C2CCC(C(C)(C)OCCO)C12C (configuration not stated)
inactive: dose: 50.0 mg/kg/injection, schedule: Q01DX001 (sc), vehicle: steriod suspending solution 105 % of control | dose: 100.0 mg/kg/injection, schedule: Q01DX001 (sc), vehicle: steriod suspending solution 102 % of control | dose: 200.0 mg/kg/injection, schedule: Q01DX001 (sc), vehicle: steriod suspending solution 107 % of control | dose: 400.0 mg/kg/injection, schedule: Q01DX001 (sc), vehicle: steriod suspending solution 96 % of control

Cc1ccncc1C#N
inactive: dose: 6.0 mg/kg/injection, schedule: Q04DX003 (ip), vehicle: saline 98 % of control | dose: 12.0 mg/kg/injection, schedule: Q04DX003 (ip), vehicle: saline 98 % of control | dose: 24.0 mg/kg/injection, schedule: Q04DX003 (ip), vehicle: saline 98 % of control

Cc1ccc(S(=O)(=O)CO)cc1
inactive: dose: 50.0 mg/kg/injection, schedule: Q01DX009 (ip), vehicle: saline with Tween-80 108 % of control | dose: 100.0 mg/kg/injection, schedule: Q01DX009 (ip), vehicle: saline with Tween-80 89 % of control | dose: 200.0 mg/kg/injection, schedule: Q01DX009 (ip), vehicle: saline with Tween-80 97 % of control

COc1cc2c(cc1[N+](=O)[O-])OCO2
inactive: [1] 104 % of control | [2] 97 % of control | [3] 98 % of control

c1ccc2c(c1)nc1n2CCC1
inactive: dose: 100.0 mg/kg/injection, schedule: Q01DX001 (ip), vehicle: carboxymethylcellulose (CMC) 96 % of control | dose: 200.0 mg/kg/injection, schedule: Q01DX001 (ip), vehicle: carboxymethylcellulose (CMC) 98 % of control | dose: 400.0 mg/kg/injection, schedule: Q01DX001 (ip), vehicle: carboxymethylcellulose (CMC) 102 % of control

— PubChem BioAssay AID248 (DTP/NCI, 2004)
